In brackets after ≈: the same amount, converted by molar mass.
What was measured:
[1] = tested on: bacteria, actinomycetes, and mycobacteria; conditions: cited from earlier work
[2] = tested on: Mycobacterium tuberculosis; conditions: cited from earlier work
[3] = tested on: myristoylation of proteins; conditions: cited from earlier work
[4] = target: T1, FAS (fatty acid synthase), Cancer (Homo sapiens, UniProt P49327); assay: FAS enzymatic assay, crude extract of breast cancer cell line ZR-75-1 (NADPH oxidation); type: biochemical; conditions: ZR-75-1 crude cell extract, 30 min incubation at 10°-25° C.; read-out: IC50 for inhibition of FAS activity, Cancer
T1 construct: using a crude cell extract of a cancer cell line or Saccharomyces cerevisiae; endogenous in cells; host or cells: ZR-75-1 breast cancer cell line (crude dialyzed digitonin extract)
Description: Preparation of crude cell extracts: The potential of compounds to inhibit FAS enzymatic activity was determined using a crude cell extract of a cancer cell line or Saccharomyces cerevisiae. The breast cancer cell line ZR-75-1 was grown to confluence in RPMI with 10$FBS. The cells were harvested by scraping, washed once with cold phosphate buffered saline pH 7.5 and stored at -80° C. Extracts were prepared by thawing the cells in the presence of 4 vol. of 25 mM potassium phosphate pH 7.5, 1 mM EDTA, 1 mM DTT, 0.4% digitonin, 0.7 μg/ml pepstatin, 2 μg/ml aprotinin and 0.5 μg/ml leupeptin. Cells were homogenized with a Dounce type homogenizer for 20 strokes. Extracts were cleared by two sequential centrifugations at 30,000 xg, for 30 min each. The extract was dialyzed against 125 mM potassium phosphate pH 6.6, 1 mM EDTA, 1 mM DTT using a 100,000 molecular weight cut off membrane. The extract stored at 4° C. with 3 mM sodium azide. Yeast extracts were prepared from freeze-dried yeast. Yeast were reconstituted in 5 vol/g 100 mM potassium phosphate pH 6.5. Cells were harvested by centrifugation at 3,000 xg for 10 min. Cells were washed with 5 vol 100 mM potassium phosphate pH 6.5 and suspended in 2 vol. 125 mM potassium phosphate pH 6.6, 1 mM EDTA, 1 mM DTT, 0.7 μg/ml pepstatin, 2 μg/ml aprotinin and 0.5 μg/ml leupeptin. Sterile 0.5 mm glass beads were added (1/2 vol) and the mixture vortex vigorously for four 30 s intervals with 30 s rests on ice between mixes. Extracts were cleared by centrifugation and dialyzed as described above.
Testing of compound activity: Compounds were tested for their ability to inhibit FAS enzymatic activity by incubating the compounds with the crude cell extracts and measuring residual FAS activity. The compounds were mixed with a crude cell extract to the desired concentration and the mixture incubated at 10°-25° C. for 30 min. Residual FAS activity was measured as described below. The concentration of compound giving 50% maximal activity defined the IC50 which was calculated from a 4-parameter equation of the dose-response curves.
(§1) Enzymatic assay conditions: The FAS enzyme activity was measured by monitoring the oxidation of NADPH spectrophotometrically (Dils, R. and E. M. Carey, 1975, Fatty acid synthase from rabbit mammary gland. Methods in Enzymol. 35:74-83). A 50 μl portion of an extract or extract-compound mixture was mixed with 50 μl 250 mM potassium phosphate pH 6.6, 40 μM acetyl-CoA, 200 μM malonyl-CoA, 1 mM NADPH and 2 mM DTT. The initial rate of NADPH oxidation at 25° C. was measured by monitoring the decrease in absorbance at 340 nm.

[5] = tested on: HS 27 cells; assay: Growth inhibition assay, HS 27 cells (crystal violet); type: cell-based; conditions: Homo sapiens, HS27, 72 h; 3 days with compound
Description: (§2) Cells were seeded at 5×10^3 per well into 96-well plates and incubated for 3 days in RPMI, 10% FBS at 37° C. in a 5% CO2 :95% air atmosphere. Medium was removed and replaced with media plus compound. Compound doses were 10 serial dilutions from 200 μg/ml to 0.39 μg/ml. Cells were returned to the incubator for 3 additional days. The medium was removed and plates were washed twice with phosphate buffered saline. Wells were filled with 100 μl of 0.2% crystal violet in 2% ethanol for 10 min. Stain was removed from the wells and the plates were washed 3 times with distilled H2 O. After at least 4 h of drying wells were filled with 100 μl of 1% SDS and plates were shaken to disolve any dye crystals. Absorbance at 560 nm minus 650 nm in each well was measured using a Molecular Devices plate reader. IC50 values were calculated from 4-parameter curve-fits of the dose-response curves.

[6] = tested on: HIV protease; conditions: cited from earlier work
[7] = tested on: fatty acid synthase; conditions: cited from earlier work
[8] = tested on: mammary, colon, and prostatic carcinoma lines; conditions: U.S. Ser. No. 08/096,908 and its CIP; cited from earlier work
[9] = target: T2, FAS (fatty acid synthase), Yeast (Saccharomyces cerevisiae, UniProt P19097); assay: FAS enzymatic assay, crude yeast extract (NADPH oxidation); type: biochemical; conditions: 30 min incubation at 10°-25° C., read-out: IC50 for inhibition of FAS activity, Yeast
T2 construct: Yeast extracts were prepared from freeze-dried yeast; endogenous in cells; host or cells: freeze-dried Saccharomyces cerevisiae (crude glass-bead extract, dialyzed)
Description: Preparation of crude cell extracts: The potential of compounds to inhibit FAS enzymatic activity was determined using a crude cell extract of a cancer cell line or Saccharomyces cerevisiae. The breast cancer cell line ZR-75-1 was grown to confluence in RPMI with 10$FBS. The cells were harvested by scraping, washed once with cold phosphate buffered saline pH 7.5 and stored at -80° C. Extracts were prepared by thawing the cells in the presence of 4 vol. of 25 mM potassium phosphate pH 7.5, 1 mM EDTA, 1 mM DTT, 0.4% digitonin, 0.7 μg/ml pepstatin, 2 μg/ml aprotinin and 0.5 μg/ml leupeptin. Cells were homogenized with a Dounce type homogenizer for 20 strokes. Extracts were cleared by two sequential centrifugations at 30,000 xg, for 30 min each. […]
Testing of compound activity: Compounds were tested for their ability to inhibit FAS enzymatic activity by incubating the compounds with the crude cell extracts and measuring residual FAS activity. […] Residual FAS activity was measured as described below. […]
as §1, with “A 50 μl portion of an extract or extract-compound mixture was mixed with 50 μl 250 mM potassium phosphate pH 6.6, 40 μM acetyl-CoA, 200 μM malonyl-CoA, 1 mM NADPH and 2 mM DTT.” left out

[10] = tested on: Candida albicans; assay: Control organism susceptibility, Candida albicans; type: cell-based; conditions: read-out: MIC (control organism)
[11] = tested on: SKBr 3 cells; assay: Growth inhibition assay, SKBr 3 cells (crystal violet); type: cell-based; conditions: Homo sapiens, SK-BR-3, 72 h; 3 days with compound
Description: as §2

[12] = tested on: M. tuberculosis; assay: Radiometric (Bactec) susceptibility test, M. tuberculosis; type: cell-based; conditions: Mycobacterium tuberculosis
[13] = tested on: fatty acid synthase expression in MCF-7 cells; conditions: Northern analysis; cited from earlier work
[14] = tested on: panel of cell lines with varying levels of FAS enzyme activity; assay: Anti-proliferative effect on a panel of cell lines with varying levels of FAS; type: cell-based
[15] = tested on: acyl CoA-synthetase; conditions: for long-chain fatty acids; cited from earlier work
[16] = tested on: Vero cells; conditions: cited from earlier work
[17] = target: rat liver acyl-CoA synthetase; conditions: read-out: concentration causing 50% inhibition of acyl-CoA synthetase; cited from earlier work
[18] = tested on: Raji cells; conditions: cited from earlier work
[19] = tested on: Hela cells; conditions: cited from earlier work

T1 sequence (P49327 whole entry): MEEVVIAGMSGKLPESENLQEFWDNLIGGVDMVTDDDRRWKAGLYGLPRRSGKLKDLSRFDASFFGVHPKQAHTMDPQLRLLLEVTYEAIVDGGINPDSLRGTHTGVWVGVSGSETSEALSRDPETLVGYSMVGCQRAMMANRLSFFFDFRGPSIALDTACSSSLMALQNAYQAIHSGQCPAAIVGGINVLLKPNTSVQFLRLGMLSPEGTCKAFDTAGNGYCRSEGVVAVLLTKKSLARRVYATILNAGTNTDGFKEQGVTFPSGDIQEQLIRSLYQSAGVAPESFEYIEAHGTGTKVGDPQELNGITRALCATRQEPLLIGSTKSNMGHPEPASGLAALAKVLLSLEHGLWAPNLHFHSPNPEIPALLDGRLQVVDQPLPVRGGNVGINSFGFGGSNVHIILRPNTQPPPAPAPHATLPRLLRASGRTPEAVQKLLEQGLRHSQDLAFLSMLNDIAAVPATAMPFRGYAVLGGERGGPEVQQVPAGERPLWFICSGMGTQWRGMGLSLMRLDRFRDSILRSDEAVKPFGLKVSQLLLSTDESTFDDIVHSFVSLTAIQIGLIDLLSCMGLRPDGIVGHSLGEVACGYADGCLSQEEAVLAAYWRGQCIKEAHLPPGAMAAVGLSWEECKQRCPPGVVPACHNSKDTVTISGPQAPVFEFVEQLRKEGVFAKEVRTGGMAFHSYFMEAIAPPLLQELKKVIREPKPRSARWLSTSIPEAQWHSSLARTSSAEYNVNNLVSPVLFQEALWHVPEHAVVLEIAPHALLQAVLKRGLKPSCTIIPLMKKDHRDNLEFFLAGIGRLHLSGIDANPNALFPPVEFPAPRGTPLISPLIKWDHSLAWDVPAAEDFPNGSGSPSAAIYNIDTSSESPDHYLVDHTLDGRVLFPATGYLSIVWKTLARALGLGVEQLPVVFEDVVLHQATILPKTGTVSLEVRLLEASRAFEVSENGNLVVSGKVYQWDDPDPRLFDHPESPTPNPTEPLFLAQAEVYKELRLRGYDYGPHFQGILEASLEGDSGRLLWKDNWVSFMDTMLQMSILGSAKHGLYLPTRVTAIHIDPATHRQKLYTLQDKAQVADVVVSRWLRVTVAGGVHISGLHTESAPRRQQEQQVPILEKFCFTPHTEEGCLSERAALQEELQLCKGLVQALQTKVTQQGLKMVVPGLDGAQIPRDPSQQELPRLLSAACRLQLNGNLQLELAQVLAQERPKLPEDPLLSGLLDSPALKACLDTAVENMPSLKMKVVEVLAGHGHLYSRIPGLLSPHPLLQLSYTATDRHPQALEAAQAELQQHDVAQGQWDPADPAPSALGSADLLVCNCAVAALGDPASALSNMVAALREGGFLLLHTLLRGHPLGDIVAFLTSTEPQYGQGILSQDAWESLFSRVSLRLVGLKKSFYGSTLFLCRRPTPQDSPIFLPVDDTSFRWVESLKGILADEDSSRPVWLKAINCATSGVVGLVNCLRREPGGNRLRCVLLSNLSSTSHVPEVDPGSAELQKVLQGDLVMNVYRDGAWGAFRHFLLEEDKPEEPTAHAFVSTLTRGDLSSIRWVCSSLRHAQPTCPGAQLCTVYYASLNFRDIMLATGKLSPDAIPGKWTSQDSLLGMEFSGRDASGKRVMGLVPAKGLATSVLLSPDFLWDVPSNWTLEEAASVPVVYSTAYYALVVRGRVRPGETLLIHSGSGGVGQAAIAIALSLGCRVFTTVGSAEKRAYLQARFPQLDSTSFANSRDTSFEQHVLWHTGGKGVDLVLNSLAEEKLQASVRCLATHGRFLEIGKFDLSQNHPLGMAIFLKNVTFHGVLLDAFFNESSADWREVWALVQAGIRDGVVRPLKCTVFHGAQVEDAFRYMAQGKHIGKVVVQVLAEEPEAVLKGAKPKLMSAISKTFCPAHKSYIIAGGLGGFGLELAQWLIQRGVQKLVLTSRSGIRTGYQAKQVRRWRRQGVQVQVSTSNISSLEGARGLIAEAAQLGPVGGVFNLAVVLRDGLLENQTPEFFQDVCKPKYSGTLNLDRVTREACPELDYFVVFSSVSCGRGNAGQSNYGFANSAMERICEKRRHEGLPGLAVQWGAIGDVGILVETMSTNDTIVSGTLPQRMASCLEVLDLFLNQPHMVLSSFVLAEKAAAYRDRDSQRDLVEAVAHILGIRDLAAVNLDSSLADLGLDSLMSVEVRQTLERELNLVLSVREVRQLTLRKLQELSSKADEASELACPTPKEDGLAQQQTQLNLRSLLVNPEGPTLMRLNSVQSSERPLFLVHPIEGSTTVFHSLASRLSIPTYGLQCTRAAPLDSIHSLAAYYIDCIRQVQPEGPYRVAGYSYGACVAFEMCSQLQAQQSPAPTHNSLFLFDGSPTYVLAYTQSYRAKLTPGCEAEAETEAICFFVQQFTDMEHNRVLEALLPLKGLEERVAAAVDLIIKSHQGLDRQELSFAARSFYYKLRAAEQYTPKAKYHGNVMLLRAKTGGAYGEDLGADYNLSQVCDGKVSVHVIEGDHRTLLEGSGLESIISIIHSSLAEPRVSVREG

Compound	IC50 [4]	IC50 [5]	IC50 [11]	further results
C/C=C/C/C=C/CCC(=O)[C@H]1O[C@H]1C(N)=O [CTC002, (2S) (3R) 2,3-epoxy-4-oxo-7,10 dodecadienoyl amide]	8.6 µM	20 µM	20 µM	in vitro activity against some bacteria, actinomycetes, and mycobacteria [1]: some in vitro activity; in vitro activity against Mycobacterium tuberculosis [2]: no activity; inhibition of myristoylation of proteins [3]: does not specifically inhibit; inhibition of viral HIV protease, concentration [6]: 5 mg/mL; type of inhibition of fatty acid synthase [7]: specific and non-competitive inhibitor; growth inhibition of carcinoma lines [8]: potently inhibit the growth; IC50 [9]: 0.4 µM; MIC [10]: < 1.5 µg/mL
Cc1cccc(/C=C/CCC2C=CC(=O)O2)c1 (centres unmarked) [CTC003]	> 100 µM	> 50 µM	> 50 µM	
Cc1cccc(/C=C/CCC(O)C2OC2C(N)=O)c1 (centres unmarked) [CTC004]	> 100 µM	> 50 µM	> 50 µM	
Cc1cccc(/C=C/CCCN2C(=O)C=CC2=O)c1 [CTC005]	> 78 µM	> 50 µM	> 50 µM	
Cc1cccc(/C=C/CCC(=O)C2OC2C(N)=O)c1 (centres unmarked) [CTC006]	10.4 µM	32 µM	21 µM	IC50 [9]: 82 µM; MIC [12]: 25 µg/mL (≈ 96.4 µM)
C/C=C/C/C=C/CCN1C(=O)C=CC1=O [CTC013]	> 97 µM	63 µM	63 µM	
C/C=C/C/C=C/CCCN1C(=O)C=CC1=O [CTC014]	> 92 µM	> 50 µM	> 50 µM	
N[C@@H](Cc1cc(I)c(Oc2ccc(O)c(I)c2)c(I)c1)C(=O)O [T3, reference compound]				effect on fatty acid synthase expression [13]: no effect
CCCCCCCCCCCCCCOc1ccc(C(=O)O)o1 [TOFA]				anti-proliferative effect [14]: anti-proliferative effect
CCCCCC/C=C/C=C/C=N/NN=O [Triacsin A]				mechanism of inhibition of acyl CoA-synthetase [15]: competitive
CCC/C=C/C/C=C/C=C/C=NN=NO [Triacsin C, 1-hydroxy-3-(E, E, E-2',4',7'-undecatrienylidine) triazene]				growth inhibition of Vero cells [16]: inhibit growth; IC50 [17]: 8.7 µM; growth inhibition, concentration [18]: 1.0 µM; growth inhibition of Hela cells [19]: inhibit growth
CC(=O)[C@H]1CC[C@H]2[C@@H]3CCC4=CC(=O)CC[C@]4(C)[C@H]3CC[C@]12C [progesterone, reference compound]				increase in fatty acid synthase expression [13]: 5-10 fold
insulin growth factor-1: insulin growth factor-1				effect on fatty acid synthase expression [13]: only slightly stimulatory
insulin: insulin				effect on fatty acid synthase expression [13]: only slightly stimulatory

Reference: patent publication US5539132A, “Cerulenin compounds for fatty acid synthesis inhibition” (Johns Hopkins University, priority 1994, dated 1996)
